Reference: patent publication US20240115744A1, “FIBRIN-BINDING COMPOUNDS FOR IMAGING AND TREATMENT” (Collagen Medical, LLC, priority 2019, published 2024)
pKd, pKi: −log10 of the molar value. Where a SMILES comes first, the peptide text is derived from it. Bridges are numbered along the chain shown (N, C = ends). [ ]: non-standard residue; d: D form. The star is where a group is joined. Tyr(3-Cl) = N[C@@H](Cc1ccc(O)c(Cl)c1)C(=O)O; Nicotinoyl(6-F) = O=C(c1ccc(F)nc1)*; Hyp = O=C(O)[C@@H]1C[C@@H](O)CN1

Assays:
[1] = biological target: T1, soluble fibrin fragment DD(E) (Homo sapiens, UniProt P02671+P02675+P02679, DEL433-453); experiment: Fluorescence polarization DD(E) binding/displacement assay; details: for pKi: displacement of TRITC-labelled peptide from DD(E), TBS·Ca with 2% DMSO, estimated uncertainty ±10%, read-out: Ki; for pKd: sub-micromolar affinity, read-out: affinity (Kd) to fibrin as assessed by DD(E) assay
T1 construct: partial plasmin digestion of purified fibrin gel followed by size-exclusion chromatographic purification; made in house
T1 sequence (P02671 130-216 limits assumed, stated change not applied): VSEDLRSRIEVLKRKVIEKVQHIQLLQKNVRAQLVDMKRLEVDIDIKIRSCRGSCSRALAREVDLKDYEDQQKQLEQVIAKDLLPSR
T1 sequence (P02675 164-491 limits assumed, stated change not applied): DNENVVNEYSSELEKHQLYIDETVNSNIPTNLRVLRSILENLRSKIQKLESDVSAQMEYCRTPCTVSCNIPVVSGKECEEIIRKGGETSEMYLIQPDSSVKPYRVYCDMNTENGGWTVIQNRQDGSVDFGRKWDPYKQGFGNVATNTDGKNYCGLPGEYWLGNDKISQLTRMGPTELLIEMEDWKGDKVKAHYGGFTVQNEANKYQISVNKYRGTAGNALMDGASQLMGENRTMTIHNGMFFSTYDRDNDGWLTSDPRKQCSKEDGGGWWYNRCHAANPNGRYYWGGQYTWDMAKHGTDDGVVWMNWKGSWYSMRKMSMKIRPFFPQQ
T1 sequence (P02679 114-432 limits assumed, stated change not applied): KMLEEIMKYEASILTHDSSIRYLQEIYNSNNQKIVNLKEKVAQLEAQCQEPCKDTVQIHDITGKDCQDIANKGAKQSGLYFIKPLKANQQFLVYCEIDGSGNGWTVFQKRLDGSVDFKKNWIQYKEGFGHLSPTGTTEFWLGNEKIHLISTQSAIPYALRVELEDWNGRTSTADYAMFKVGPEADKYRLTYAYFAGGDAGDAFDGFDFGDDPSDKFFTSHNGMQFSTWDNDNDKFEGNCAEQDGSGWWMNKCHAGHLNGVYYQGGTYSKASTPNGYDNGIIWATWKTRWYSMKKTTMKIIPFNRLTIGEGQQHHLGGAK
T1 sequence (P02671 36-97 partner limits assumed): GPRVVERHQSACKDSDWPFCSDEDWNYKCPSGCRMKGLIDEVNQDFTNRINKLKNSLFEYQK
T1 sequence (P02675 45-152 partner limits assumed): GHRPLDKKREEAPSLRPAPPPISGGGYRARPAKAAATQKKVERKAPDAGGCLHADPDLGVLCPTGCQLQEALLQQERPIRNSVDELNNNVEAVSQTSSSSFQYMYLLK
T1 sequence (P02679 27-88 partner limits assumed): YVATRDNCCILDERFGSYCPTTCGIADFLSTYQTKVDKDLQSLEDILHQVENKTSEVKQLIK
Experimental: DD(E) was prepared using a published procedure which involved partial plasmin digestion of purified fibrin gel followed by size-exclusion chromatographic purification, and purity was assessed by SDS-PAGE. Peptides modified at the N-terminus with tetramethyl-rhodamine (TRITC) dye bind to DD(E). Direct fluorescent peptide binding to DD(E) was measured by a fluorescence polarization (FP) assay. The anisotropy (robs) of the fluorescently labeled peptides binding to DD(E) (0-20 μM) was measured in Tris buffered saline (50 mM Tris, 100 mM NaCl and 2 mM CaCl2) at fixed compound concentrations, and the data were fit to a single site model (Eq. 1) to obtain the dissociation constant (Kd) for the DD(E)·(fluorescent peptide) complex.
Displacement of the fluorescent peptide by non-fluorescent compound was measured to determine inhibition constants (Ki). In the presence of an inhibitor, an apparent dissociation constant for the fluorescent compound (Kd app) is determined using Eq. 2. The inhibition constant Ki is related to Kd app by Eq. 2, wherein Kd is the true dissociation constant of the fluorescent compound measured in the absence of inhibitor.
Non-labeled peptide binding to DD(E) was measured by a compound displacement assay, where a DD(E)/Fl·pep complex formed at fixed concentrations of DD(E) and Fl·pep was titrated with increasing concentrations of unlabeled compound. The compound was assayed by mixing DD(E) (4.0 μM, 10 μL) and TRITC (0.1 μM, 10 μL) with increasing concentrations of competing peptide (0.4-100 μM, 20 μL) in TBS·Ca with 2% DMSO in a final volume of 40 μL. Fluorescence polarization of the samples (10 μL, triplicate wells) in ascending concentrations was measured in a 384-well microplate (Corning flat black plate), using a Tecan Infinite 200 Pro fluorescence microplate reader equipped with fluorescence polarization filters, a 535 nm excitation filter and a 590 nm fluorescence emission filter. Average polarization (mP units) readings for each dilution of the compound of interest was converted to anisotropy (r) using Eq. 3.
The data defined a displacement curve (robs vs. [Peptide]), and the inhibitory binding constant, Ki, was determined by least squares fitting of the data (estimated uncertainty in Ki±10%). See Table 2 for the Ki values for the Compounds from Example 1.

[2] = Stability in rat plasma at 37° C. up to 4 h; format: in vitro ADME; details: after 4 h
Experimental: The six compounds identified in Example 3 (Compounds 2, 3, 4, 5, 6, and 7) were assayed for stability in rat plasma at 37° C. for up to 4 h. Compounds were dissolved in DMSO to a make a stock solution (0.6 mM). Plasma (995 μL) was spiked with peptide stock solution (5 μL). Incubations were carried at a test compound concentration of 3 μM with a final DMSO concentration of […]. The spiked plasma samples were incubated at 37° C. for 4 h. Aliquots (300 μL) were removed at 0, 0.5, 1, 2 and 4 h and reactions were terminated by adding 600 μL of cold acetonitrile with 0.1% formic acid containing carbutamide (25 μg/mL) as an internal standard. Simultaneously, a plasma sample (995 μL) containing a mixture of benfluorex, propranolol and nortriptyline (40 μM in DMSO) control compounds was also incubated alongside each batch of test compounds and terminated similarly. […] Following centrifugation, the concentration of the compound of interest in the supernatant was quantified by LCMS. […] The peak area for each detected compound was measured to determine the % remaining of each compound and the result was compared with standards of pure compound and compound immediately isolated from plasma (t=0 sample). All assay samples were analyzed in triplicate. […]

pKi [1] | pKd [1] | stability in rat plasma [2] | SMILES
6.47 | > 6.22 | greatest stability | CC[C@H](C)[C@H](NC(=O)[C@H](Cc1ccc(O)cc1)NC(=O)[C@@H]1CSSC[C@H](NC(=O)[C@@H](CCC(=O)O)NC(=O)[C@@H](Cc2ccc(O)cc2)NC(=O)c2ccc(F)nc2)C(=O)N2C[C@H](O)C[C@H]2C(=O)N[C@@H](Cc2ccc(O)c(Cl)c2)C(=O)NCC(=O)N[C@@H](CC(C)C)C(=O)N1)C(=O)N[C@@H](CCC(N)=O)C(N)=O [Compound 6, -y-e-C-Hyp-Y(3-Cl)-G-L-C-Y-I-Q-] ({Nicotinoyl(6-F)}-[dY][dE]C[Hyp][Tyr(3-Cl)]GLCYIQ-NH2; disulfide 3-8)
6.24 | > 6.22 | greatest stability | CC[C@H](C)[C@H](NC(=O)[C@H](Cc1ccc(O)cc1)NC(=O)[C@@H]1CSSC[C@H](NC(=O)[C@@H](CCC(=O)O)NC(=O)[C@H](Cc2ccc(O)cc2)NC(=O)c2ccc(F)nc2)C(=O)N2C[C@H](O)C[C@H]2C(=O)N[C@@H](Cc2ccc(O)c(Cl)c2)C(=O)NCC(=O)N[C@@H](CC(C)C)C(=O)N1)C(=O)N[C@@H](CCC(N)=O)C(N)=O [Compound 7, -Y-e-C-Hyp-Y(3-Cl)-G-L-C-Y-I-Q-] ({Nicotinoyl(6-F)}-Y[dE]C[Hyp][Tyr(3-Cl)]GLCYIQ-NH2; disulfide 3-8)
